Results as given in EPA's ToxValDB 9.5 (doi:10.2903/j.efsa.2007.108r).
≈ marks a conversion by molar mass, not a printed value. Where “and” joins values, the source holds several entries; their conditions need not be identical. Identical values can stand only once.

Columns and labels:
Apis mellifera = conditions: acute; duration: 48 hours; oral; unspecified; mortality
Daphnia magna = conditions: chronic/long-term; duration: 21 days; reproduction
Anas platyrhynchos = conditions: short-term; oral; feed; mortality
Tagia sp. = conditions: acute; duration: 14 days; mortality

Nc1cnn(-c2ccccc2)c(=O)c1Cl [Chloridazon]
LD50 (Rattus norvegicus; acute, oral, F, mortality): 2140 mg/kg and 825 mg/kg | NOAEL (Rattus norvegicus; chronic, duration: 2 years, body weight): 13 mg/kg-day | NOAEL (Rattus norvegicus; reproduction developmental, body weight): 37 mg/kg-day | NOAEL (Rattus norvegicus; reproduction developmental, reproduction): 37 mg/kg-day | NOAEL (Rattus norvegicus; subchronic, duration: 90 days, oral, body weight): 21 mg/kg-day | LD50 (Colinus virginianus; acute, oral, mortality): ≥ 2000 mg/kg | NOAEL (Colinus virginianus; reproduction developmental, F): 21.8 mg/kg-day | LC50 (Oncorhynchus mykiss; acute, duration: 96 hours, mortality): 41.3 µg/mL (≈ 186 µM) | NOEC (Oncorhynchus mykiss; chronic/long-term, duration: 28 days, growth): 3.16 mg/L | LD50 (Apis mellifera): > 200 µg/piece | NOEC (Daphnia magna): 10 mg/L | LC50 (Anas platyrhynchos): 1110 mg/kg | LC50 (Tagia sp.): > 1000 mg/kg
